Where “and” joins values, the source holds several entries; their conditions need not be identical. Equal values may be shown once. Inconclusive results and toxic doses are left out.
Test system: L1210 leukemia ip in BDF1 mice, survival T/C
Assay: NCI In Vivo Anticancer Drug Screen. Data for tumor model L1210 Leukemia (intraperitoneal) in B6D2F1 (BDF1) mice
Settings: endpoint: mean survival time, higher = longer survival
Method in brief: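 Antitumor effect is assessed in tumor-bearing animals. Survival in the compound arm is compared with a vehicle-dosed control arm and expressed as their quotient.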

[1] = dose: 100.0 mg/kg/injection, schedule: Q01DX009 (ip), vehicle: Klucel (hydroxypropylcellulose) (HPC)
[2] = dose: 200.0 mg/kg/injection, schedule: Q01DX009 (ip), vehicle: Klucel (hydroxypropylcellulose) (HPC)
[3] = dose: 100.0 mg/kg/injection, schedule: Q01DX001 (ip), vehicle: saline
[4] = dose: 200.0 mg/kg/injection, schedule: Q01DX001 (ip), vehicle: saline
[5] = dose: 400.0 mg/kg/injection, schedule: Q01DX001 (ip), vehicle: saline

Nc1cc(C(=O)Nc2ccc(C3=NCCN3)cc2)ccc1C(=O)Nc1ccc(C2=NCCN2)cc1
T/C (dose: 0.49 mg/kg/injection, schedule: Q01DX Z (ip), vehicle: saline): 107 % of control
T/C (dose: 0.73 mg/kg/injection, schedule: Q01DX Z (ip), vehicle: saline): 117 % of control
T/C (dose: 2.5 mg/kg/injection, schedule: Q01DX Z (ip), vehicle: methylcellulose (MC)): 103 % of control
T/C (dose: 2.7 mg/kg/injection, schedule: Q01DX Z (ip), vehicle: carboxymethylcellulose (CMC)): 153 % of control
T/C (dose: 4.0 mg/kg/injection, schedule: Q01DX Z (ip), vehicle: carboxymethylcellulose (CMC)): 162 % of control
T/C (dose: 4.0 mg/kg/injection, schedule: Q01DX Z (ip), vehicle: methylcellulose (MC)): 156 % of control
T/C (dose: 4.4 mg/kg/injection, schedule: Q01DX015 (ip), vehicle: carboxymethylcellulose (CMC)): 259 % of control
T/C (dose: 6.0 mg/kg/injection, schedule: Q01DX Z (ip), vehicle: carboxymethylcellulose (CMC)): 212 % of control
T/C (dose: 6.0 mg/kg/injection, schedule: Q01DX Z (ip), vehicle: methylcellulose (MC)): 250 % of control
T/C (dose: 6.6 mg/kg/injection, schedule: Q01DX015 (ip), vehicle: carboxymethylcellulose (CMC)): 329 % of control
T/C (dose: 9.0 mg/kg/injection, schedule: Q01DX Z (ip), vehicle: carboxymethylcellulose (CMC)): 247 % of control
T/C (dose: 9.0 mg/kg/injection, schedule: Q01DX Z (ip), vehicle: methylcellulose (MC)): 200 % of control and 346 % of control
T/C (dose: 10.0 mg/kg/injection, schedule: Q01DX015 (ip), vehicle: carboxymethylcellulose (CMC)): 303 % of control
T/C (dose: 14.0 mg/kg/injection, schedule: Q01DX Z (ip), vehicle: carboxymethylcellulose (CMC)): 345 % of control
T/C (dose: 14.0 mg/kg/injection, schedule: Q01DX Z (ip), vehicle: methylcellulose (MC)): 226 % of control and 329 % of control
T/C (dose: 15.0 mg/kg/injection, schedule: Q01DX015 (ip), vehicle: carboxymethylcellulose (CMC)): 333 % of control
T/C (dose: 15.0 mg/kg/injection, schedule: Q01DX Z (oral), vehicle: carboxymethylcellulose (CMC)): 96 % of control
T/C (dose: 20.0 mg/kg/injection, schedule: Q01DX Z (ip), vehicle: carboxymethylcellulose (CMC)): 154 % of control and 279 % of control
T/C (dose: 20.0 mg/kg/injection, schedule: Q01DX Z (ip), vehicle: methylcellulose (MC)): 94 % of control
T/C (dose: 30.0 mg/kg/injection, schedule: Q01DX Z (ip), vehicle: carboxymethylcellulose (CMC)): 152 % of control
T/C (dose: 30.0 mg/kg/injection, schedule: Q01DX Z (oral), vehicle: carboxymethylcellulose (CMC)): 93 % of control
T/C (dose: 45.0 mg/kg/injection, schedule: Q01DX Z (ip), vehicle: carboxymethylcellulose (CMC)): 101 % of control
T/C (dose: 47.0 mg/kg/injection, schedule: Q01DX Z (ip), vehicle: methylcellulose (MC)): 86 % of control
T/C (dose: 60.0 mg/kg/injection, schedule: Q01DX Z (oral), vehicle: carboxymethylcellulose (CMC)): 93 % of control
T/C (dose: 120.0 mg/kg/injection, schedule: Q01DX Z (oral), vehicle: carboxymethylcellulose (CMC)): 117 % of control
T/C (dose: 240.0 mg/kg/injection, schedule: Q01DX Z (oral), vehicle: carboxymethylcellulose (CMC)): 100 % of control
T/C (dose: 480.0 mg/kg/injection, schedule: Q01DX Z (oral), vehicle: carboxymethylcellulose (CMC)): 94 % of control
T/C (dose: 960.0 mg/kg/injection, schedule: Q01DX Z (oral), vehicle: carboxymethylcellulose (CMC)): 107 % of control

O=C(Nc1ccccc1)OCC1CC2CCC1C2 (centres undefined)
T/C [1]: 96 % of control
T/C (dose: 100.0 mg/kg/injection, schedule: Q04DX003 (ip), vehicle: Klucel (hydroxypropylcellulose) (HPC)): 95 % of control
T/C [2]: 94 % of control
T/C (dose: 200.0 mg/kg/injection, schedule: Q04DX003 (ip), vehicle: Klucel (hydroxypropylcellulose) (HPC)): 93 % of control
T/C (dose: 400.0 mg/kg/injection, schedule: Q01DX009 (ip), vehicle: Klucel (hydroxypropylcellulose) (HPC)): 96 % of control
T/C (dose: 400.0 mg/kg/injection, schedule: Q04DX003 (ip), vehicle: Klucel (hydroxypropylcellulose) (HPC)): 93 % of control

C=CCCCCCCCCC(=O)N(CCOC)CCOC
T/C (dose: 25.0 mg/kg/injection, schedule: Q01DX009 (ip), vehicle: saline with Tween-80): 96 % of control
T/C (dose: 50.0 mg/kg/injection, schedule: Q01DX009 (ip), vehicle: saline with Tween-80): 100 % of control
T/C (dose: 100.0 mg/kg/injection, schedule: Q01DX009 (ip), vehicle: saline with Tween-80): 100 % of control and 91 % of control

Clc1ncnc2ccccc12
T/C (dose: 100.0 mg/kg/injection, schedule: Q01DX001 (ip), vehicle: Klucel (hydroxypropylcellulose) (HPC)): 94 % of control
T/C (dose: 200.0 mg/kg/injection, schedule: Q01DX001 (ip), vehicle: Klucel (hydroxypropylcellulose) (HPC)): 95 % of control

O=CNC(O)C(Cl)(Cl)Cl (centres undefined)
T/C (dose: 100.0 mg/kg/injection, schedule: Q01DX009 (ip), vehicle: saline): 98 % of control
T/C (dose: 100.0 mg/kg/injection, schedule: Q04DX003 (ip), vehicle: saline): 109 % of control
T/C (dose: 200.0 mg/kg/injection, schedule: Q01DX009 (ip), vehicle: saline): 89 % of control
T/C (dose: 200.0 mg/kg/injection, schedule: Q04DX003 (ip), vehicle: saline): 95 % of control
T/C (dose: 400.0 mg/kg/injection, schedule: Q01DX009 (ip), vehicle: saline): 89 % of control
T/C (dose: 400.0 mg/kg/injection, schedule: Q04DX003 (ip), vehicle: saline): 95 % of control

C=CCNC(=S)N(C)Cc1ccccc1Cl
T/C [1]: 90 % of control
T/C [2]: 98 % of control

C=CC(N)=O (tested in a mixture with another compound)
T/C [3]: 99 % of control
T/C [4]: 99 % of control
T/C [5]: 89 % of control

CC(=O)c1ccc(NC(=O)N(CCCl)N=O)cc1
T/C (dose: 2.0 mg/kg/injection, schedule: Q01DX001 (ip), vehicle: carboxymethylcellulose (CMC)): 122 % of control
T/C (dose: 18.0 mg/kg/injection, schedule: Q01DX001 (ip), vehicle: carboxymethylcellulose (CMC)): 190 % of control
T/C (dose: 25.0 mg/kg/injection, schedule: Q01DX001 (ip), vehicle: carboxymethylcellulose (CMC)): 152 % of control
T/C (dose: 75.0 mg/kg/injection, schedule: Q01DX001 (ip), vehicle: carboxymethylcellulose (CMC)): 191 % of control
T/C (dose: 150.0 mg/kg/injection, schedule: Q01DX001 (ip), vehicle: carboxymethylcellulose (CMC)): 160 % of control
T/C (dose: 300.0 mg/kg/injection, schedule: Q01DX001 (ip), vehicle: carboxymethylcellulose (CMC)): 97 % of control

NNC(=O)CNc1ccccc1Cl
T/C (dose: 100.0 mg/kg/injection, schedule: Q04DX002 (ip), vehicle: Klucel (hydroxypropylcellulose) (HPC)): 112 % of control
T/C (dose: 200.0 mg/kg/injection, schedule: Q04DX002 (ip), vehicle: Klucel (hydroxypropylcellulose) (HPC)): 108 % of control

COc1cccc(C(=O)O)c1O
T/C (dose: 75.0 mg/kg/injection, schedule: Q01DX001 (ip), vehicle: acetone): 101 % of control
T/C (dose: 150.0 mg/kg/injection, schedule: Q01DX001 (ip), vehicle: acetone): 98 % of control

CN(C)CCCN
T/C [3]: 97 % of control
T/C [4]: 108 % of control
T/C [5]: 95 % of control

CC1=NN=S(CC2=C(C(=O)O)N3C(=O)C(NC(=O)C[n+]4cc(=O)o[nH]4)C3SC2)S1 (centres undefined)
T/C (dose: 50.0 mg/kg/injection, schedule: Q04DX002 (ip), vehicle: saline): 118 % of control
T/C (dose: 100.0 mg/kg/injection, schedule: Q04DX002 (ip), vehicle: saline): 103 % of control
T/C (dose: 200.0 mg/kg/injection, schedule: Q04DX002 (ip), vehicle: saline): 114 % of control

C[C@@H]1CN1C1=CC(=O)C(N2C[C@H]2C)=CC1=O
T/C (dose: 6.25 mg/kg/injection, schedule: Q04DX003 (ip), vehicle: saline with Tween-80): 117 % of control
T/C (dose: 12.5 mg/kg/injection, schedule: Q04DX003 (ip), vehicle: saline with Tween-80): 117 % of control

O=C1C=C(N2CC2)C(=O)C=C1N1CC1
T/C (dose: 0.62 mg/kg/injection, schedule: Q01DX001 (ip), vehicle: other): 105 % of control
T/C (dose: 1.25 mg/kg/injection, schedule: Q01DX001 (ip), vehicle: other): 117 % of control
T/C (dose: 2.5 mg/kg/injection, schedule: Q01DX001 (ip), vehicle: other): 107 % of control

CCOC(=O)c1[nH]c2ccccc2c1CN(CCCl)CCCl
T/C (dose: 2.5 mg/kg/injection, schedule: Q01DX Z (ip), vehicle: saline): 107 % of control
T/C (dose: 5.0 mg/kg/injection, schedule: Q01DX Z (ip), vehicle: saline): 108 % of control
T/C (dose: 10.0 mg/kg/injection, schedule: Q01DX Z (ip), vehicle: other): 120 % of control
T/C (dose: 10.0 mg/kg/injection, schedule: Q01DX Z (ip), vehicle: saline): 120 % of control
T/C (dose: 20.0 mg/kg/injection, schedule: Q01DX Z (ip), vehicle: other): 122 % of control

CN(C)c1ccc(/C=N/NC(=O)C(O)C(O)C(O)C(O)CO)c(Cl)c1 (centres undefined)
T/C (dose: 100.0 mg/kg/injection, schedule: Q04DX002 (ip), vehicle: saline with Tween-80): 98 % of control
T/C (dose: 200.0 mg/kg/injection, schedule: Q04DX002 (ip), vehicle: saline with Tween-80): 91 % of control
T/C (dose: 400.0 mg/kg/injection, schedule: Q04DX002 (ip), vehicle: saline with Tween-80): 88 % of control

Source: PubChem BioAssay AID248 (DTP/NCI, 2004)
